Converted amounts (≈) assume the structure as drawn.
System: not listed separately
Assay: Acid resistance (half-life period)
Format: physicochemical
Conditions: acid ph 1.3; Temperature 37° C, pH 1.3; Table 1, cyclopentyl series; read-out: τ1/2 half-life period (acid resistance)
Experimental: (§1) All compounds of this group were prepared in the form of sodium salts. Bactericidal activity, degree of hydrolysis with staphylococc penicillinase and acid resistance of the penicillins were determined.

In order of rising half-life:
1. CCCOc1ccccc1C1(C(=O)NC2C(=O)N3C2SC(C)(C)C3C(=O)O)CCCC1 (stereo not drawn) [Compound IV (Table 1)]  0.248 h
2. CCCCOc1ccc(C2(C(=O)NC3C(=O)N4C3SC(C)(C)C4C(=O)O)CCCC2)cc1 (stereo not drawn) [Compound XVI (Table 1)]  0.72 h
3. CCOc1ccccc1C1(C(=O)NC2C(=O)N3C2SC(C)(C)C3C(=O)O)CCCC1 (stereo not drawn) [Compound III (Table 1)]  1.7 h
4. COc1cccc(C2(C(=O)NC3C(=O)N4C3SC(C)(C)C4C(=O)O)CCCC2)c1 (stereo not drawn) [Compound VII (Table 1)]  4.8 h

Target: staphylococc penicillinase (Staphylococcus aureus, UniProt P00807)
Assay: Hydrolysis/inactivation by staphylococc penicillinase
Format: biochemical
Conditions: Table 5
Experimental: as §1
The substitution of propoxy radical for iso-radical in this position is not accompanied by areduction of penicillin stability against penicillinase which is not observed in the orto- and para-positions. During the subsequent hours of inactivation the rate of hydrolysis of penicillins slightly increases. However, even when observed in dynamics, their stability against penicillianase still persists during 4-hour-inactivation.

staphylococc penicillinase, sequence (P00807 25-281): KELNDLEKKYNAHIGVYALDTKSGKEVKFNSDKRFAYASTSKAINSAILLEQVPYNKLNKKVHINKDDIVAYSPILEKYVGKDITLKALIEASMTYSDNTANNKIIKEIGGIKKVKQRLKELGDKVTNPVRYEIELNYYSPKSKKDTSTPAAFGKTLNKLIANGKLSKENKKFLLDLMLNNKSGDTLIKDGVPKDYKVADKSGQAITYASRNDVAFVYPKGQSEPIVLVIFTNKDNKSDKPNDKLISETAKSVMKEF

In order of rising “Quantity of inactivated units of compounds under the action of 1 unit of staphylococc penicillinase” value:
1. COc1cccc(C2(C(=O)NC3C(=O)N4C3SC(C)(C)C4C(=O)O)CCCC2)c1 (stereo not drawn) [Compound VII (Table 1)]  14.2 units
2. CCCOc1ccccc1C1(C(=O)NC2C(=O)N3C2SC(C)(C)C3C(=O)O)CCCC1 (stereo not drawn) [Compound IV (Table 1)]  20.45 units
3. CCOc1ccccc1C1(C(=O)NC2C(=O)N3C2SC(C)(C)C3C(=O)O)CCCC1 (stereo not drawn) [Compound III (Table 1)]  20.5 units
4. CCCCOc1ccc(C2(C(=O)NC3C(=O)N4C3SC(C)(C)C4C(=O)O)CCCC2)cc1 (stereo not drawn) [Compound XVI (Table 1)]  23.3 units

System: B.Subtitis ATCC6633
Assay: Minimal bacteriostatic concentration
Format: cell-based
Conditions: sodium salts
Experimental: as §1

In order of rising MIC:
1. CCCCOc1ccc(C2(C(=O)NC3C(=O)N4C3SC(C)(C)C4C(=O)O)CCCC2)cc1 (stereo not drawn) [Compound XVI (Table 1)]  0.24 µg/mL
2. COc1cccc(C2(C(=O)NC3C(=O)N4C3SC(C)(C)C4C(=O)O)CCCC2)c1 (stereo not drawn) [Compound VII (Table 1)]  1.56 µg/mL
3. CCOc1ccccc1C1(C(=O)NC2C(=O)N3C2SC(C)(C)C3C(=O)O)CCCC1 (stereo not drawn) [Compound III (Table 1)]  7.8 µg/mL
4. CCCOc1ccccc1C1(C(=O)NC2C(=O)N3C2SC(C)(C)C3C(=O)O)CCCC1 (stereo not drawn) [Compound IV (Table 1)]  15.6 µg/mL

System: E.coli O-55
Assay: Minimal bacteriostatic concentration
Format: cell-based
Conditions: Escherichia coli, O55, read-out: Minimal Bacteriostatic Concentration
Experimental: as §1

`CCCCOc1ccc(C2(C(=O)NC3C(=O)N4C3SC(C)(C)C4C(=O)O)CCCC2)cc1` (stereo not drawn) [Compound XVI (Table 1)] showed an MIC of 125 µg/mL (≈ 271 µM).

Same assay, conditions: Escherichia coli, O55; E.coli O-55; sodium salts; read-out: Minimal Bacteriostatic Concentration

`CCOc1ccccc1C1(C(=O)NC2C(=O)N3C2SC(C)(C)C3C(=O)O)CCCC1` (stereo not drawn) [Compound III (Table 1)] and `CCCOc1ccccc1C1(C(=O)NC2C(=O)N3C2SC(C)(C)C3C(=O)O)CCCC1` (stereo not drawn) [Compound IV (Table 1)] cannot be ordered by MIC: 500 µg/mL for the first, > 125 µg/mL for the second.

`COc1cccc(C2(C(=O)NC3C(=O)N4C3SC(C)(C)C4C(=O)O)CCCC2)c1` (stereo not drawn) [Compound VII (Table 1)] gave an MIC of 250 µg/mL.

System: E.typhi
Assay: Minimal bacteriostatic concentration
Format: cell-based
Conditions: read-out: Minimal Bacteriostatic Concentration
Experimental: as §1

In order of rising MIC:
1. CCCCOc1ccc(C2(C(=O)NC3C(=O)N4C3SC(C)(C)C4C(=O)O)CCCC2)cc1 (stereo not drawn) [Compound XVI (Table 1)]  15.6 µg/mL (≈ 33.9 µM)
2. CCOc1ccccc1C1(C(=O)NC2C(=O)N3C2SC(C)(C)C3C(=O)O)CCCC1 (stereo not drawn) [Compound III (Table 1)]  62.5 µg/mL (≈ 144 µM)
3. CCCOc1ccccc1C1(C(=O)NC2C(=O)N3C2SC(C)(C)C3C(=O)O)CCCC1 (stereo not drawn) [Compound IV (Table 1)]  62.5 µg/mL (≈ 140 µM)

System: Myco smegmatis
Assay: Minimal bacteriostatic concentration
Format: cell-based
Conditions: sodium salts
Experimental: as §1

`CCOc1ccccc1C1(C(=O)NC2C(=O)N3C2SC(C)(C)C3C(=O)O)CCCC1` (stereo not drawn) [Compound III (Table 1)] and `CCCOc1ccccc1C1(C(=O)NC2C(=O)N3C2SC(C)(C)C3C(=O)O)CCCC1` (stereo not drawn) [Compound IV (Table 1)] cannot be ordered by MIC: > 500 µg/mL for the first, > 500 µg/mL for the second.

`COc1cccc(C2(C(=O)NC3C(=O)N4C3SC(C)(C)C4C(=O)O)CCCC2)c1` (stereo not drawn) [Compound VII (Table 1)] and `CCCCOc1ccc(C2(C(=O)NC3C(=O)N4C3SC(C)(C)C4C(=O)O)CCCC2)cc1` (stereo not drawn) [Compound XVI (Table 1)] cannot be ordered by MIC: > 500 µg/mL for the first, > 500 µg/mL for the second.

System: Prot.vulgaris
Assay: Minimal bacteriostatic concentration
Format: cell-based
Conditions: Proteus vulgaris, sodium salts
Experimental: as §1

In order of rising MIC:
1. COc1cccc(C2(C(=O)NC3C(=O)N4C3SC(C)(C)C4C(=O)O)CCCC2)c1 (stereo not drawn) [Compound VII (Table 1)]  125 µg/mL
2. CCCCOc1ccc(C2(C(=O)NC3C(=O)N4C3SC(C)(C)C4C(=O)O)CCCC2)cc1 (stereo not drawn) [Compound XVI (Table 1)]  125 µg/mL
3. CCOc1ccccc1C1(C(=O)NC2C(=O)N3C2SC(C)(C)C3C(=O)O)CCCC1 (stereo not drawn) [Compound III (Table 1)]  500 µg/mL
4. CCCOc1ccccc1C1(C(=O)NC2C(=O)N3C2SC(C)(C)C3C(=O)O)CCCC1 (stereo not drawn) [Compound IV (Table 1)]  500 µg/mL

System: Ps.aeruginosa
Assay: Minimal bacteriostatic concentration
Format: cell-based
Conditions: Pseudomonas aeruginosa, sodium salts
Experimental: as §1

`CCOc1ccccc1C1(C(=O)NC2C(=O)N3C2SC(C)(C)C3C(=O)O)CCCC1` (stereo not drawn) [Compound III (Table 1)] and `CCCOc1ccccc1C1(C(=O)NC2C(=O)N3C2SC(C)(C)C3C(=O)O)CCCC1` (stereo not drawn) [Compound IV (Table 1)] cannot be ordered by MIC: > 500 µg/mL for the first, > 500 µg/mL for the second.

`COc1cccc(C2(C(=O)NC3C(=O)N4C3SC(C)(C)C4C(=O)O)CCCC2)c1` (stereo not drawn) [Compound VII (Table 1)] and `CCCCOc1ccc(C2(C(=O)NC3C(=O)N4C3SC(C)(C)C4C(=O)O)CCCC2)cc1` (stereo not drawn) [Compound XVI (Table 1)] cannot be ordered by MIC: > 500 µg/mL for the first, > 500 µg/mL for the second.

System: Sh.dysenteriae Flexneri
Assay: Minimal bacteriostatic concentration
Format: cell-based
Conditions: Shigella dysenteriae, read-out: Minimal Bacteriostatic Concentration
Experimental: as §1

In order of falling MIC:
1. CCOc1ccccc1C1(C(=O)NC2C(=O)N3C2SC(C)(C)C3C(=O)O)CCCC1 (stereo not drawn) [Compound III (Table 1)]  125 µg/mL (≈ 289 µM)
2. CCCOc1ccccc1C1(C(=O)NC2C(=O)N3C2SC(C)(C)C3C(=O)O)CCCC1 (stereo not drawn) [Compound IV (Table 1)]  125 µg/mL (≈ 280 µM)
3. COc1cccc(C2(C(=O)NC3C(=O)N4C3SC(C)(C)C4C(=O)O)CCCC2)c1 (stereo not drawn) [Compound VII (Table 1)]  125 µg/mL (≈ 299 µM)
4. CCCCOc1ccc(C2(C(=O)NC3C(=O)N4C3SC(C)(C)C4C(=O)O)CCCC2)cc1 (stereo not drawn) [Compound XVI (Table 1)]  62.5 µg/mL (≈ 136 µM)

System: Staph. albus
Assay: Minimal bacteriostatic concentration
Format: cell-based
Conditions: sodium salts
Experimental: as §1

In order of falling MIC:
1. CCOc1ccccc1C1(C(=O)NC2C(=O)N3C2SC(C)(C)C3C(=O)O)CCCC1 (stereo not drawn) [Compound III (Table 1)]  0.39 µg/mL
2. CCCOc1ccccc1C1(C(=O)NC2C(=O)N3C2SC(C)(C)C3C(=O)O)CCCC1 (stereo not drawn) [Compound IV (Table 1)]  0.39 µg/mL
3. COc1cccc(C2(C(=O)NC3C(=O)N4C3SC(C)(C)C4C(=O)O)CCCC2)c1 (stereo not drawn) [Compound VII (Table 1)]  0.39 µg/mL
4. CCCCOc1ccc(C2(C(=O)NC3C(=O)N4C3SC(C)(C)C4C(=O)O)CCCC2)cc1 (stereo not drawn) [Compound XVI (Table 1)]  0.19 µg/mL

System: Staph. aureus 209p (adapted to benzylpenicillin)
Assay: Minimal bacteriostatic concentration
Format: cell-based
Conditions: Staphylococcus aureus, read-out: Minimal Bacteriostatic Concentration
Experimental: as §1

`CCOc1ccccc1C1(C(=O)NC2C(=O)N3C2SC(C)(C)C3C(=O)O)CCCC1` (stereo not drawn) [Compound III (Table 1)] and `CCCOc1ccccc1C1(C(=O)NC2C(=O)N3C2SC(C)(C)C3C(=O)O)CCCC1` (stereo not drawn) [Compound IV (Table 1)] cannot be ordered by MIC: > 500 µg/mL for the first, > 500 µg/mL for the second.

For `COc1cccc(C2(C(=O)NC3C(=O)N4C3SC(C)(C)C4C(=O)O)CCCC2)c1` (stereo not drawn) [Compound VII (Table 1)], the MIC was > 500 µg/mL.

System: Staph. aureus 209p
Assay: Minimal bacteriostatic concentration
Format: cell-based
Conditions: Staphylococcus aureus, sodium salts
Experimental: as §1

In order of falling MIC:
1. CCOc1ccccc1C1(C(=O)NC2C(=O)N3C2SC(C)(C)C3C(=O)O)CCCC1 (stereo not drawn) [Compound III (Table 1)]  0.78 µg/mL
2. COc1cccc(C2(C(=O)NC3C(=O)N4C3SC(C)(C)C4C(=O)O)CCCC2)c1 (stereo not drawn) [Compound VII (Table 1)]  0.39 µg/mL
3. CCCCOc1ccc(C2(C(=O)NC3C(=O)N4C3SC(C)(C)C4C(=O)O)CCCC2)cc1 (stereo not drawn) [Compound XVI (Table 1)]  0.39 µg/mL
4. CCCOc1ccccc1C1(C(=O)NC2C(=O)N3C2SC(C)(C)C3C(=O)O)CCCC1 (stereo not drawn) [Compound IV (Table 1)]  0.19 µg/mL

System: Strept. pyrogenes
Assay: Minimal bacteriostatic concentration
Format: cell-based
Conditions: sodium salts
Experimental: as §1

In order of falling MIC:
1. CCOc1ccccc1C1(C(=O)NC2C(=O)N3C2SC(C)(C)C3C(=O)O)CCCC1 (stereo not drawn) [Compound III (Table 1)]  0.78 µg/mL
2. CCCOc1ccccc1C1(C(=O)NC2C(=O)N3C2SC(C)(C)C3C(=O)O)CCCC1 (stereo not drawn) [Compound IV (Table 1)]  0.39 µg/mL
3. COc1cccc(C2(C(=O)NC3C(=O)N4C3SC(C)(C)C4C(=O)O)CCCC2)c1 (stereo not drawn) [Compound VII (Table 1)]  0.39 µg/mL
4. CCCCOc1ccc(C2(C(=O)NC3C(=O)N4C3SC(C)(C)C4C(=O)O)CCCC2)cc1 (stereo not drawn) [Compound XVI (Table 1)]  0.048 µg/mL

System: Vibrion Metschnicoff
Assay: Minimal bacteriostatic concentration
Format: cell-based
Conditions: Vibrion Metschnicoff; sodium salts; read-out: Minimal Bacteriostatic Concentration
Experimental: as §1

In order of falling MIC:
1. CCOc1ccccc1C1(C(=O)NC2C(=O)N3C2SC(C)(C)C3C(=O)O)CCCC1 (stereo not drawn) [Compound III (Table 1)]  0.9 µg/mL
2. CCCOc1ccccc1C1(C(=O)NC2C(=O)N3C2SC(C)(C)C3C(=O)O)CCCC1 (stereo not drawn) [Compound IV (Table 1)]  0.9 µg/mL
3. CCCCOc1ccc(C2(C(=O)NC3C(=O)N4C3SC(C)(C)C4C(=O)O)CCCC2)cc1 (stereo not drawn) [Compound XVI (Table 1)]  0.48 µg/mL

System: not listed separately
Assay: in vivo
Conditions: mouse, iv

In order of rising MTD:
1. CCOc1ccccc1C1(C(=O)NC2C(=O)N3C2SC(C)(C)C3C(=O)O)CCCC1 (stereo not drawn) [Compound III (Table 1)]  1000 mg/kg
2. CCCOc1ccccc1C1(C(=O)NC2C(=O)N3C2SC(C)(C)C3C(=O)O)CCCC1 (stereo not drawn) [Compound IV (Table 1)]  1500 mg/kg
3. CCCCOc1ccc(C2(C(=O)NC3C(=O)N4C3SC(C)(C)C4C(=O)O)CCCC2)cc1 (stereo not drawn) [Compound XVI (Table 1)]  1500 mg/kg
4. COc1cccc(C2(C(=O)NC3C(=O)N4C3SC(C)(C)C4C(=O)O)CCCC2)c1 (stereo not drawn) [Compound VII (Table 1)]  2500 mg/kg

— patent US4130559A, “Method for the preparation of 6-aminopenicillinic acid derivatives” (priority 1977, dated 1978)
